From US20130122051A1, “Methods of preparing progesterone pharmaceutical compositions” (PHARMACEUTICS INTERNATIONAL, INC., priority 2011, published 2013)

Assay: particle size measured using a MALVERN MASTERSIZER particle size analyzer
Assay type: physicochemical
Settings: starting progesterone particles before milling
Method: Samples of each of the first, second, and third pass wet-milled progesterone compositions prepared under the various milling conditions are collected and the particle size (μm) is measured using a MALVERN MASTERSIZER particle size analyzer (Malvern Instruments, Westborough Mass.). Saturated, filtered, progesterone in sunflower oil is used as the diluent. “Initial” refers to unmilled progesterone suspension. “% Beads” refers to the volume of milling chamber filled with milling media (beads). “Input” refers to the pump setting. “Output” refers to the product (gm/min) received from the mill.

D90: 220 μm
Compound: CC(=O)[C@H]1CC[C@H]2[C@@H]3CCC4=CC(=O)CC[C@]4(C)[C@H]3CC[C@]12C [unmicronized progesterone, pregn-4-ene-3,20-dione]
